Measurements taken from PMC4837090 (Nature chemical biology, 2016).

Experiments:
[1] = target: T1, hAIG1 (Homo sapiens, UniProt Q9NVV5); format: binding
T1 sequence (Q9NVV5 1-238): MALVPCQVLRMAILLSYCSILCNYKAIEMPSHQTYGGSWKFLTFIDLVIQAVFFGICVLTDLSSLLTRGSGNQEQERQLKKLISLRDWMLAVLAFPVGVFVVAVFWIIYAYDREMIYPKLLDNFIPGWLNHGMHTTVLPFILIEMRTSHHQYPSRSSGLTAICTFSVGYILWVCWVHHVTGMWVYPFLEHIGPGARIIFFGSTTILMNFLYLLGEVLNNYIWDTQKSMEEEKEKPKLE

[2] = system: LNCaP cells; assay: in situ 13C,2H-PAHSA hydrolysis; format: cell-based, human; details: 5 μM, 4 h, then 2 μM 13C,2H-PAHSA 2 h

With CCCCCCCCCCC[C@@H](C[C@@H]1OC(=O)[C@H]1CCCCCC)OC(=O)[C@H](CC(C)C)NC=O [THL, tetrahydrolipstatin] the “inhibition of FP reactivity of AIG1” value [1] was “did not inhibit” and the “reduction in 13C16-PA and 2H19-HSA products (13C,2H-PAHSA hydrolysis) vs DMSO” value [2] was “negligible alterations”.
